Test results from patent publication US10464939B2, “Deuterated triazolopyridazine as a kinase modulator” (Janssen Pharmaceutica NV, priority 2014, dated 2019).
Read-outs that look alike come from different tables or passages of the source.

Columns and labels:
CHO OCT2 cells = assay: Cytotoxicity test (PrestoBlue viability), CHO OCT2 cells; format: cell-based, Chinese Hamster; conditions: after 1 minute of incubation, compound of formula (I) 100 μM, Triton X-100 1%
Description: (§1) Cytotoxicity of the compound of formula (I) was determined at 100 μM, and this in both CHO parental and OCT2 cells. Also a 1% Triton-X100 condition was included, as a positive control cytotoxic reagent. After 1 minute of incubation the supernatant was aspirated, the dry cells washed twice with 1 mL HBSS^+/++10 mM Hepes pH 7.4 (37° C.). After aspiration of the buffer, a 1/10 dilution of the PrestoBlue Viability Reagent (Life Technologies) in HBSS^+/++10 mM Hepes pH 7.4 was added and plates were incubated for 60 minutes at 37° C., protected from light. Each well was sampled (150 μL) in a black 96-well plate and fluorescence was measured (Excitation: 560 nm/12 nm bandwith, Emission: 590 nm/12 nm bandwith).

CHO Parental cells = assay: Cytotoxicity test (PrestoBlue viability), CHO parental cells; format: cell-based, Chinese Hamster; conditions: for cytotoxic effects (in words): 100 μM, both CHO parental and OCT2 cells; for Cell Viability %: CHO parental cells, after 1 minute of incubation, compound of formula (I) 100 μM, Triton X-100 1%
Description: as §1

[1] = In vivo pharmacokinetic determination of compound (I), compound A and their metabolites in plasma; design: species or system New Zealand White Rabbits; conditions: both sexes, New Zealand White, male and female rabbit; for AUC(0-inf) / AUC(0-t) / Cmax / Tmax / MRT: rabbit, po, 10 mg/kg; for MRT: read-out: MRT (mean residence time)
Text: In vivo pharmacokinetic determination of compound (I), compound A and their metabolites in New Zealand White Rabbits.
Male New Zealand rabbits (Crl: KBL (NZW), Charles River, France) and female New Zealand rabbits (NZW INRA A1077, Centre Lago) were used. Per compound (compound of formula (I) and compound A) one male and two female rabbits were used with a mean weight of 2.6±0.2 kg. A complete plasma concentration time-profile was obtained from each individual animal. Standard diet and tap water were available ad libitum. Compound of formula (I) and compound A were both dissolved in a 10% (w/v) SBE-B-CD (sulfobutyl ether-beta-cyclodextrin) research grade (Captisol) solution at a final concentration of 1 mg/ml. HCl and PVP K30 were added to facilitate dissolution of the compounds. After total dissolution, the pH was brought up to 2.6/2.7 with NaOH. The formulations were stored at room temperature, protected from light and analysed quantitatively with LC-MS/MS on the day of preparation. Stability of the formulations was checked on the day of dosing. Animals were dosed orally by gavage at 10 ml/kg to obtain a final dose of 10 mg/kg. From each individual dosed animal, blood samples were taken at 30 minutes, 1, 2, 4, 7 and 24 hours after oral administration. Blood was collected by multiple sampling from a lateral ear vein into Multivette® 600 K3E tubes (Sarstedt). Samples were placed immediately on melting ice and plasma was obtained following centrifugation at 4° C. for 10 minutes at approximately 1900×g. All samples were shielded from daylight and stored at ≤−18° C. prior to analysis. Plasma samples were analysed for compound (I), compound A, metabolite 1, metabolite 2, N-desmethyl metabolite 3 (which was calculated on the curve of N-desmethyl metabolite 4) and N-desmethyl metabolite 4 using a qualified research LC-MS/MS method. The key analytical performance (linearity, upper and lower limit of quantification, accuracy and precision) of the method was reported together with the plasma concentrations. The lower limit of quantification (LLOQ) for plasma was 1.00 ng/ml for all compounds. A limited pharmacokinetic analysis was performed using Phoenix™ Professional (Version 6.2.1). A non-compartmental analysis using the lin/log trapezoidal rule with lin/log interpolation was used for all data.

EBC1 = assay: Proliferation assay with Alamar blue, EBC-1 cells; format: cell-based; conditions: Homo sapiens, EBC-1, 96 h, 4 days incubation
Description: (§2) Inhibition of Proliferation of Cancer Cells Carrying Met Amplification and Dependent on Met Signaling by the Compound of Formula (I)
(§3) Proliferation Assay with Alamar Blue
(§4) Cells were seeded out in a 96-well plate in 180 μl growth medium. Depending on the growth curve test the amount of cells per well was different for each cell line. The cells were incubated overnight in an incubator at 37° C. in a humidified 5% CO2 atmosphere. The next day: The compound plate was prepared and 4 μl of compound was added to 196 μl of pre-warmed medium. 20 μl of this was added to 180 μl of cells. This was incubated for 4 days after adding the compound at 37° C. in a humidified 5% CO2 atmosphere. After the 4 days 40 μl of Alamar blue solution was added. This was incubated at 37° C. in a humidified 5% CO2 atmosphere for 4 hours (depending on the cell line this was tested before at different hours of incubation during the growth curve test). After the 4 hours the fluorescence was measured at excitation 530 nm, emission 590 nm. The fluorescence of control (DMSO treatment) was taken as 100% and the fluorescence of cells incubated with compounds was calculated against the control in %. So a dose response curve could be made and a IC50 could be calculated.

SNU-5 = assay: Proliferation assay with Alamar blue, Snu-5 cells; format: cell-based; conditions: Homo sapiens, 96 h, 4 days incubation
Description: as §2, §3, §4

[2] = Toxicology study of compound A in rabbit; format: in vivo
Description: (§5) [drawing 2] was explored in a phase I, first-in-human trial. […] Extensive additional pre-clinical experiments were performed to understand the nature of the renal effects. Metabolism data pointed into the direction of the rabbit to be a suitable toxicology species.

[3] = Phase I, first-in-human trial of compound A; format: in vivo
Description: The safety, pharmacokinetics, pharmacodynamics and initial efficacy of the potent and selective c-Met inhibitor with the following structure
as §5

[4] = Pre-clinical toxicity tests of compound A in dog; format: in vivo
Description: as §5

[5] = Pre-clinical toxicity tests of compound A in rat; format: in vivo
Description: as §5

[6] = Solubility of Metabolite 2; format: physicochemical
Text: Solubility of Metabolite 2:

OCT2 (SLC22A2) = target: T1, OCT2 (SLC22A2) (Homo sapiens, UniProt O15244); assay: cell-based; format: cell-based
T1 construct: host or cells: Chinese Hamster Ovary (CHO) cells stably transfected with OCT2
T1 sequence (O15244 1-555): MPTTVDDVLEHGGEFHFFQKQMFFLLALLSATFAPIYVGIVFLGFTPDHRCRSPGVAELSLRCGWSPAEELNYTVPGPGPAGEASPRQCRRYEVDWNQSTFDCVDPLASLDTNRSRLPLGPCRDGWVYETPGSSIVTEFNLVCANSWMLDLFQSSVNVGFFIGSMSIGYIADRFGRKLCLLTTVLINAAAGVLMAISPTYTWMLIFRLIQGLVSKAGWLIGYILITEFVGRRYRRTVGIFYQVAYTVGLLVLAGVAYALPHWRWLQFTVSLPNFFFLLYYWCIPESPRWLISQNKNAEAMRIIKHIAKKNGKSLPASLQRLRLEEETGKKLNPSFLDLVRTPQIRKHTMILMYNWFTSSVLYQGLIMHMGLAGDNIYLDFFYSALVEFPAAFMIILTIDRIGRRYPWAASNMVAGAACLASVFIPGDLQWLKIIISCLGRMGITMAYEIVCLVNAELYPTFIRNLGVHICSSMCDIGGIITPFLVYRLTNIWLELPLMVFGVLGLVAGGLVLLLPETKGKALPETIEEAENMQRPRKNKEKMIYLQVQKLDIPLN
Description: This was tested using Chinese Hamster Ovary (CHO) cells, parental or stably transfected with OCT2. ^14C-Metformin was used as OCT2 substrate.
CHO cell lines, parental and stably transfected with OCT2 were obtained from Solvo Biotechnology (Hungary).
CHO cells were cultured in DMEM-F12 (Dulbecco's Modified Eagle Medium) supplemented with 0.03 mg/mL L-Proline, 1% L-Glutamine, penicillin (50-100 U/mL), streptomycin (50-100 μg/mL) and 10% (v/v) foetal calf or bovine serum (FCS) further referred to as “CHO culture medium”.
If needed, non-radiolabeled and radio-labeled compounds were mixed to obtain the proper chemical and radioactive concentration. Proper solvent controls were included.
Both, CHO parental and OCT2 cells were seeded into 24 well plates (1 mL/well, 400 000 cells/well) in CHO culture medium.
Transport experiments were performed in Hank's Balanced Salt Solution^+Ca,+Mg (HBSS^+/+) supplemented with 10 mM HEPES at pH 7.4. All media added to the cells and plates were kept at 37° C.
Before the incubation, the cells in each well were washed twice with 1 mL HBSS^+/++10 mM Hepes pH 7.4 at 37° C. Next, the incubation medium, containing reference substrate and the inhibitors (or inhibitor solvent) was added (250 μL/well).
At the time of dose administration (0 min), 150 μL of the dosing solution was sampled in triplicate for determination of initial concentrations by Liquid Scintillation Counting (LSC). During the incubation period, the plates were kept at 37° C.
To stop the reaction, 1.5 mL ice-cold HBSS^+/+ was added to each well and the liquids were aspirated. Again, to each well 2 mL ice-cold HBSS^+/+ was added and aspirated while keeping the plate angled. Following aspiration of the last well, all the wells were aspirated again taking care of not touching the cells.
To lyse the cells, 250 μL of Mammalian Protein Extraction Reagent (M-PER) lysis buffer was added to each well and the plates were shaken for at least 10 minutes (400 rpm). For LSC, a 150 μL sample/well was taken and for protein analysis a 25 μL sample/well. […]

[7] = test system: aldehyde oxidase / CYP450; assay: Metabolisation of compound of formula (I) compared to compound A
Text: This may decrease renal toxicity.
In case of the present compound of formula (I) more of the N-desmethyl metabolite with the following structure is formed

[8] = single oral 10 mg/kg of compound A
[9] = single oral 10 mg/kg of compound (I)

Row | Compound | AUC(0-inf) [1, 8] | AUC(0-t) [1, 8] | Cmax [1, 8] | Tmax [1, 8] | MRT [1, 8] | AUC(0-inf) [1, 9] | AUC(0-t) [1, 9] | Cmax [1, 9] | Tmax [1, 9] | MRT [1, 9] | other results
1 | Triton X-100 [reference compound] | – | – | – | – | – | – | – | – | – | – | Cell Viability % (CHO OCT2 cells): 0%; cytotoxic effects (in words) (CHO Parental cells): viability dropped dramatically; Cell Viability % (CHO Parental cells): 0%
2 | FC(F)(c1ccc2ncccc2c1)c1nnc2ccc(-c3cn[nH]c3)nn12 [N-desmethyl metabolite 4, 6-{Difluoro[6-(1H-pyrazol-4-yl)[1,2,4]triazolo[4,3-b]pyridazin-3-yl]methyl}quinoline] | 1510 ± 190 ng·h/mL | 1490 ± 193 ng·h/mL | 299 ± 146 ng/mL | 1.3 ± 0.6 h | 5.7 ± 0.9 h | – | – | – | – | – | –
3 | Cn1cc(-c2ccc3nnc(C(F)(F)c4ccc5ncccc5c4)n3n2)cn1 [Compound A, reference compound] | 8220 ± 5740 ng·h/mL | 8190 ± 5740 ng·h/mL | 1830 ± 1360 ng/mL | 1 h | 5.2 ± 0.9 h | 62.3 ± 47.8 ng·h/mL | 53.7 ± 40.6 ng·h/mL | 27.6 ± 17.4 ng/mL | 0.5 h | 3.24 ± 0.76 h | half-life [1, 9]: 2.1 ± 0.4 h; IC50 (EBC1): 13.4 nM; IC50 (SNU-5): 13.8 nM; effect on renal function [2]: did affect renal function; histological analysis of kidney [2]: crystal formation with consequently degenerative and inflammatory changes in the kidney; toxicity finding in phase I, first-in-human trial [3]: unexpected renal toxicity; pre-clinical toxicity profile [4]: clean toxicity profile; pre-clinical toxicity profile [5]: clean toxicity profile
4 | O=c1ccc2cc(C(F)(F)c3nnc4ccc(-c5cn[nH]c5)nn34)ccc2[nH]1 [Metabolite 1, 6-{Difluoro[6-(1H-pyrazol-4-yl)[1,2,4]triazolo[4,3-b]pyridazin-3-yl]methyl}quinolin-2(1H)-one] | 1050 ± 421 ng·h/mL | 934 ± 336 ng·h/mL | 126 ± 80 ng/mL | 2.7 ± 1.2 h | 7.8 ± 1.4 h | 409 ± 7 ng·h/mL | – | 57.5 ± 34.2 ng/mL | 2.3 ± 1.5 h | 7 ± 0.7 h | –
5 | Cn1cc(-c2ccc3nnc(C(F)(F)c4ccc5[nH]c(=O)ccc5c4)n3n2)cn1 [Metabolite 2, 6-{Difluoro[6-(1-methyl-1H-pyrazol-4-yl)[1,2,4]triazolo[4,3-b]pyridazin-3-yl]methyl}quinolin-2(1H)-one] | 439 ± 331 ng·h/mL | 341 ± 259 ng·h/mL | 84.4 ± 55.9 ng/mL | 1 h | 5 ± 9 h | 152 ± 81 ng·h/mL | 127 ± 65 ng·h/mL | 39.8 ± 13.1 ng/mL | 0.8 ± 0.3 h | 3.8 ± 0.7 h | half-life [1, 8]: 3 ± 0.5 h; solubility ([6]; pH 4.84, aqueous buffer): 1 µg/mL; solubility ([6]; pH 7.33, aqueous buffer): 2 µg/mL
6 | [2H]c1ccc2cc(C(F)(F)c3nnc4ccc(-c5cnn(C)c5)nn34)ccc2n1 [Compound of formula (I)] | – | – | – | – | – | 8570 ± 6440 ng·h/mL | 8460 ± 6520 ng·h/mL | 3570 ± 2320 ng/mL | 0.5 h | 4.6 ± 1 h | IC50 (OCT2 (SLC22A2)): 670 ± 20 nM; inhibition of the 14C-Metformin uptake in OCT2 cells (in words) (OCT2 (SLC22A2)): shows inhibition; Cell Viability % (CHO OCT2 cells): 103%; IC50 (EBC1): 12 nM; IC50 (SNU-5): 13.2 nM; cytotoxic effects (in words) (CHO Parental cells): no cytotoxic effects were observed; Cell Viability % (CHO Parental cells): 104%; formation of insoluble/less soluble aldehyde oxidase mediated metabolites [7]: down regulated
7 | [2H]c1ccc2cc(C(F)(F)c3nnc4ccc(-c5cn[nH]c5)nn34)ccc2n1 [N-desmethyl metabolite 3] | – | – | – | – | – | 2360 ± 450 ng·h/mL | 2310 ± 392 ng·h/mL | 738 ± 447 ng/mL | 1.2 ± 0.8 h | 5.1 ± 0.3 h | half-life [1, 9]: 4.4 ± 1.9 h
8 | C=C[C@H]1C[N@@]2CC[C@H]1C[C@@H]2[C@@H](O)c1ccnc2ccc(OC)cc12 [Quinidine, reference compound] | – | – | – | – | – | – | – | – | – | – | inhibition at 1 min, 300 μM (OCT2 (SLC22A2); human, pH 7.4, inhibition of 14C-Metformin uptake): 85.5%
